Tests used:
[1] = tested on: isolated perfused rat hearts; assay: Ex vivo isolated perfused rat heart assay (Langendorff apparatus), load independent inotropic and lusitropic effects; design: species or system Sprague Dawley rat; settings: ex vivo isolated perfused rat heart, percent change over vehicle; for Isolated Heart Assay dP/dtmax (%): contractility; for Isolated Heart Assay dP/dtmin (%): relaxation
Excerpt: Evidence for Load Independent Inotropic Effects with APJ Agonists Using Ex Vivo Assay (Isolated Perfused Rat Hearts)
Naive Sprague Dawley® SD rats (Harlan laboratories (Livermore, Calif. USA)) were anaesthetized and hearts were excised followed by cannulation in the Langendorff apparatus (Harvard apparatus, Holliston, Mass. USA) via aorta. The heart was perfused retrograde with modified oxygenated Krebs-Henseleit buffer (Skrzypiec-Spring M et al., (2007) J. Pharmacol Toxicol Methods 55: 113-126). The pressure of the solution causes the aortic valve to shut and the perfusate is then forced into the ostium and the coronary vessels. This allows the heart to beat for several h. A balloon was inserted into the left ventricle (LV) to measure dP/dtmax (derivative of left ventricular pressure) as an index of cardiac contractility. The APJ agonist was perfused constantly in a dose dependent manner into the heart to examine cardiac contractility.
Example 49.0 was infused at different concentrations and load independent contractility was measured by index of LV dP/dtmax and the results are expressed as a percent change over vehicle. […] Example 49.0 was infused at different concentrations and load independent lusitropic effect (relaxation) was measured by index of LV dP/dtmin where results are expressed as percent change over vehicle. […] Example 60.0 was infused at different concentrations and load independent contractility was measured by index of LV dP/dtmax and the results are expressed as a percent change over vehicle. […] Example 60.0 was infused at different concentrations and load independent lusitropic effect (relaxation) was measured by index of LV dP/dtmin where results are expressed as percent change over vehicle.

[2] = target: human APJ receptor (Homo sapiens (Human), UniProt P35414); assay: [35S]GTPγS binding assay on membranes from CHO cells stably expressing human APJ receptor; type: biochemical; settings: read-out: Activity hAPJ SPA EC50 IP
human APJ receptor, sequence (P35414 whole entry): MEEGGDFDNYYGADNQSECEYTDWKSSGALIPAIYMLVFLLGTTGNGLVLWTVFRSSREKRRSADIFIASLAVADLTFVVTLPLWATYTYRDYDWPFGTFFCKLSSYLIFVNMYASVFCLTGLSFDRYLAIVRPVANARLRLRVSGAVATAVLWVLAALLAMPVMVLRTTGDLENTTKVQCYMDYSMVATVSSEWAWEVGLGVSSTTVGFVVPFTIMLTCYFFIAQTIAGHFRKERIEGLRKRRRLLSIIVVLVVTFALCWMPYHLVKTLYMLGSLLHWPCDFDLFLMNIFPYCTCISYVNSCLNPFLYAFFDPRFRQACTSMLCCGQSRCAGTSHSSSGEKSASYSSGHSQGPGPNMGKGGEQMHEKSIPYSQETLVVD
Summary of the method: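 Membranes from CHO cells stably expressing human APJ incubated with ligand, 0.2 nM [35S]GTPγS and WGA SPA beads in HEPES pH 7.5 with 5 mM MgCl2, 200 mM NaCl, 3 μM GDP, 90 min at RT. Nonspecific binding defined with 100 μM GTPγS; EC50 by non-linear regression.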

Compound | Isolated Heart Assay dP/dtmax (%) [1] | Isolated Heart Assay dP/dtmin (%) [1] | EC50 [2]
COc1cccc(OC)c1-n1c(NS(=O)(=O)[C@@H](C)[C@H](C)c2ncc(Cl)cn2)nnc1[C@@H]1COCCO1 (single isomer, unassigned) [Example 40.0, (2S,3R)-3-(5-chloro-2-pyrimidinyl)-N-(4-(2,6-dimethoxyphenyl)-5-((2R)-1,4-dioxan-2-yl)-4H-1,2,4-triazol-3-yl)-2-butanesulfonamide or (2S,3R)-3-(5-chloro-2-pyrimidinyl)-N-(4-(2,6-dimethoxyphenyl)-5-((2S)-1,4-dioxan-2-yl)-4H-1,2,4-triazol-3-yl)-2-butanesulfonamide] | No effect | No effect | 0.014 µM
COc1cccc(OC)c1-n1c(NS(=O)(=O)[C@@H](C)[C@H](C)c2ncc(Cl)cn2)nnc1[C@H]1CCCO1 (single isomer, unassigned) [Example 47.0, (2S,3R)-3-(5-chloro-2-pyrimidinyl)-N-(4-(2,6-dimethoxyphenyl)-5-((2S)-tetrahydro-2-furanyl)-4H-1,2,4-triazol-3-yl)-2-butanesulfonamide or (2S,3R)-3-(5-chloro-2-pyrimidinyl)-N-(4-(2,6-dimethoxyphenyl)-5-((2R)-tetrahydro-2-furanyl)-4H-1,2,4-triazol-3-yl)-2-butanesulfonamide] | 6.5% | 1.0% | 0.00072 µM
COc1cccc(OC)c1-n1c(NS(=O)(=O)[C@@H](C)[C@H](C)c2ncc(C)cn2)nnc1[C@H]1CCCO1 (single isomer, unassigned) [Example 50.0, (2S,3R)-N-(4-(2,6-dimethoxyphenyl)-5-((S)-tetrahydrofuran-2-yl)-4H-1,2,4-triazol-3-yl)-3-(5-methylpyrimidin-2-yl)butane-2-sulfonamide or (2S,3R)-N-(4-(2,6-dimethoxyphenyl)-5-((R)-tetrahydrofuran-2-yl)-4H-1,2,4-triazol-3-yl)-3-(5-methylpyrimidin-2-yl)butane-2-sulfonamide] | 2.0% | No effect | 0.028 µM
COc1cccc(OC)c1-n1c(NS(=O)(=O)[C@@H](C)[C@H](OC)c2ncc(Cl)cn2)nnc1[C@H]1CCCO1 (single isomer, unassigned) [Example 51.0, (1R,2S)-1-(5-chloropyrimidin-2-yl)-N-(4-(2,6-dimethoxyphenyl)-5-((R)-tetrahydrofuran-2-yl)-4H-1,2,4-triazol-3-yl)-1-methoxypropane-2-sulfonamide or (1R,2S)-1-(5-chloropyrimidin-2-yl)-N-(4-(2,6-dimethoxyphenyl)-5-((S)-tetrahydrofuran-2-yl)-4H-1,2,4-triazol-3-yl)-1-methoxypropane-2-sulfonamide] | No effect | No effect | 0.00059 µM
COc1cccc(OC)c1-n1c(NS(=O)(=O)[C@@H](C)[C@H](C)c2ncc(Cl)cn2)nnc1[C@H]1CCCO1 (single isomer, unassigned) [Example 53.0, (2S,3R)-3-(5-chloro-2-pyrimidinyl)-N-(4-(2,6-dimethoxyphenyl)-5-((2S)-tetrahydro-2-furanyl)-4H-1,2,4-triazol-3-yl)-2-butanesulfonamide or (2S,3R)-3-(5-chloro-2-pyrimidinyl)-N-(4-(2,6-dimethoxyphenyl)-5-((2R)-tetrahydro-2-furanyl)-4H-1,2,4-triazol-3-yl)-2-butanesulfonamide] | 14.0% | 12.4% | 0.013 µM
COc1cccc(OC)c1-n1c(NS(=O)(=O)[C@@H](C)[C@H](OC)c2ncc(Cl)cn2)nnc1[C@H]1CCOC1 (single isomer, unassigned) [Example 56.0, (1R,2S)-1-(5-chloropyrimidin-2-yl)-N-(4-(2,6-dimethoxyphenyl)-5-((R)-tetrahydrofuran-3-yl)-4H-1,2,4-triazol-3-yl)-1-methoxypropane-2-sulfonamide or (1R,2S)-1-(5-chloropyrimidin-2-yl)-N-(4-(2,6-dimethoxyphenyl)-5-((S)-tetrahydrofuran-3-yl)-4H-1,2,4-triazol-3-yl)-1-methoxypropane-2-sulfonamide] | 6.8% | 7.1% | 0.019 µM
COc1cccc(OC)c1-n1c(NS(=O)(=O)[C@@H](C)[C@H](OC)c2ncc(Cl)cn2)nnc1[C@H]1CCOC1 (single isomer, unassigned) [Example 57.0, (1R,2S)-1-(5-chloropyrimidin-2-yl)-N-(4-(2,6-dimethoxyphenyl)-5-((R)-tetrahydrofuran-3-yl)-4H-1,2,4-triazol-3-yl)-1-methoxypropane-2-sulfonamide or (1R,2S)-1-(5-chloropyrimidin-2-yl)-N-(4-(2,6-dimethoxyphenyl)-5-((S)-tetrahydrofuran-3-yl)-4H-1,2,4-triazol-3-yl)-1-methoxypropane-2-sulfonamide] | No effect | No effect | 0.021 µM
COc1cccc(OC)c1-n1c(NS(=O)(=O)[C@@H](C)[C@H](C)c2ncc(Cl)cn2)nnc1[C@H]1CCOC1 (single isomer, unassigned) [Example 61.0, (2S,3R)-3-(5-chloropyrimidin-2-yl)-N-(4-(2,6-dimethoxyphenyl)-5-((R)-tetrahydrofuran-3-yl)-4H-1,2,4-triazol-3-yl)butane-2-sulfonamide or (2S,3R)-3-(5-chloropyrimidin-2-yl)-N-(4-(2,6-dimethoxyphenyl)-5-((S)-tetrahydrofuran-3-yl)-4H-1,2,4-triazol-3-yl)butane-2-sulfonamide] | 3.0% | No effect | 0.029 µM
(2S,3R)-N-(4-(2,6-dimethoxyphenyl)-5-((R)-1,4-dioxan-2-yl)-4H-1,2,4-triazol-3-yl)-3-(5-methoxypyrazin-2-yl)butane-2-sulfonamide or (2S,3R)-N-(4-(2,6-dimethoxyphenyl)-5-((S)-1,4-dioxan-2-yl)-4H-1,2,4-triazol-3-yl)-3-(5-methoxypyrazin-2-yl)butane-2-sulfonamide [Example 208.0] |  |  | 0.02 µM
(2S,3R)-N-(4-(2,6-dimethoxyphenyl)-5-((R)-1,4-dioxan-2-yl)-4H-1,2,4-triazol-3-yl)-3-(5-methylpyrimidin-2-yl)butane-2-sulfonamide or (2S,3R)-N-(4-(2,6-dimethoxyphenyl)-5-((S)-1,4-dioxan-2-yl)-4H-1,2,4-triazol-3-yl)-3-(5-methylpyrimidin-2-yl)butane-2-sulfonamide [Example 205.0] |  |  | 0.019 µM
(2S,3R)-N-(4-(2,6-dimethoxyphenyl)-5-((S)-tetrahydrothiophen-2-yl)-4H-1,2,4-triazol-3-yl)-3-(5-methylpyrimidin-2-yl)butane-2-sulfonamide or (2S,3R)-N-(4-(2,6-dimethoxyphenyl)-5-((R)-tetrahydrothiophen-2-yl)-4H-1,2,4-triazol-3-yl)-3-(5-methylpyrimidin-2-yl)butane-2-sulfonamide [Example 223.0] |  |  | 0.012 µM
(2S,3R)-N-(4-(2,6-dimethoxyphenyl)-5-((S)-tetrahydrothiophen-2-yl)-4H-1,2,4-triazol-3-yl)-3-(5-methylpyrimidin-2-yl)butane-2-sulfonamide or (2S,3R)-N-(4-(2,6-dimethoxyphenyl)-5-((R)-tetrahydrothiophen-2-yl)-4H-1,2,4-triazol-3-yl)-3-(5-methylpyrimidin-2-yl)butane-2-sulfonamide [Example 224.0] |  |  | 0.0015 µM
(2S,3R)-N-(4-((1r,2R,6S)-2,6-dimethoxycyclohexyl)-5-((3S)-tetrahydro-3-furanyl)-4H-1,2,4-triazol-3-yl)-3-(5-methyl-2-pyrimidinyl)-2-butanesulfonamide or (2S,3R)-N-(4-((1r,2R,6S)-2,6-dimethoxycyclohexyl)-5-((3R)-tetrahydro-3-furanyl)-4H-1,2,4-triazol-3-yl)-3-(5-methyl-2-pyrimidinyl)-2-butanesulfonamide [Example 4.0] |  |  | 0.89 µM
(2S,3R)-N-(4-((1r,2R,6S)-2,6-dimethoxycyclohexyl)-5-((3S)-tetrahydro-3-furanyl)-4H-1,2,4-triazol-3-yl)-3-(5-methyl-2-pyrimidinyl)-2-butanesulfonamide or (2S,3R)-N-(4-((1r,2R,6S)-2,6-dimethoxycyclohexyl)-5-((3R)-tetrahydro-3-furanyl)-4H-1,2,4-triazol-3-yl)-3-(5-methyl-2-pyrimidinyl)-2-butanesulfonamide [Example 5.0] |  |  | > 4.2 µM
((2S,3R)-N-(4-(2,6-dimethoxyphenyl)-5-((R)-1,4-dioxan-2-yl)-4H-1,2,4-triazol-3-yl)-3-(5-methylpyrimidin-2-yl)butane-2-sulfonamide or (2S,3R)-N-(4-(2,6-dimethoxyphenyl)-5-((S)-1,4-dioxan-2-yl)-4H-1,2,4-triazol-3-yl)-3-(5-methylpyrimidin-2-yl)butane-2-sulfonamide [Example 206.0] |  |  | 0.035 µM

From patent US10150760B2, “Compounds for use in preparing heterocyclic triazole agonists of the APJ receptor” (AMGEN INC., priority 2016, dated 2018)
